Experimental findings from patent US7915050B2, “Regulatory genes for plant differentiation and growth, and use of the same” (National University Corporation Nagoya University, priority 2005, dated 2011) are described below.

pIC50, pKd: −log10 of the molar value.

In one assay the target is T1, AtGID1a (Arabidopsis thaliana, UniProt Q9MAA7).
T1 construct: made in house; host or cells: E. coli
T1 sequence (Q9MAA7 1-345): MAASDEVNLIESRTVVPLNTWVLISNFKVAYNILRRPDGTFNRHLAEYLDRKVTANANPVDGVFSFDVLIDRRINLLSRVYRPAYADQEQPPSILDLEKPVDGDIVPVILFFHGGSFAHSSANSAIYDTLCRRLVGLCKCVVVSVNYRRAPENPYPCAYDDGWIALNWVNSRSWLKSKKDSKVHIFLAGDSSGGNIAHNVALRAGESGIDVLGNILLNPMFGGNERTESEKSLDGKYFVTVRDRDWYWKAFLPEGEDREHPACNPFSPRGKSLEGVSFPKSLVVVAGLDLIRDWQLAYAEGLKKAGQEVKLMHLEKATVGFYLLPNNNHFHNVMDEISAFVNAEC
As to the kind of experiment: Competitive ability of GA in AtGID1-GA binding (AtGID1a). Here is the method: In the gibberellin-binding assay, [1,2,16,17-^3H4]16,17-dihydro-GA4 was used as a labeled GA4. In vitro GA-binding assays were carried out using previous methods with some modifications (Nakajima, M. et al., Biochem. Biophys. Res. Comm. 241, 782-786 (1997)). The purified recombinant GID1 protein (400 pmol) was dissolved in 300 μl of binding buffer [20 mM Tris-HCl (pH 7.6), 5 mM 2-mercaptoethanol, and 0.1 M NaCl], and incubated with 100 μl of ^3H4-16,17-dihydroGA4 (6 pmol) for two hours at 25° C., either in the absence of non-labeled GA4 (total binding) or in the presence of 833-fold excess non-labeled GA4 (total non-specific binding). Then, 0.1 ml of the reaction mixture was loaded onto a NAP-5 column (Amersham Biosciences, Piscataway, N.J.). The eluate of the binding buffer (0.6 ml) was discarded, the subsequent eluate (0.2 ml) was collected, and the radioactivity was measured. The specific binding activity, reflecting the number of displaceable GA binding sites, was calculated by subtracting the amount of nonspecific binding from the amount of total binding. The same as above can also be carried out for other GAs.
Specifically, the coding region of the AtGID1 gene was amplified by PCR using specific primers designed based on the full-length cDNA sequence of the AtGID1 gene and having appropriate restriction sites at each end. After confirmation by sequence analysis, each cDNA fragment was ligated into pET32a vector (Novagen/Merck Biosciences, Madison, Wis., USA) or pGEX-4T-2 vector (Amersham Biosciences, Piscataway, N.J., USA; currently, a part of GE Healthcare). The production of recombinant proteins was confirmed by SDS-PAGE; vector cassettes were used as negative controls. GA binding assays were carried out similarly as described above using [1,2,16,17-^3H4]-16,17-dihydro-GA4 (4.55 TBq/mmol), which was custom-made by DuPont/NEN (Boston, Mass., USA). Non-labeled GA4 (1.25 mM) was used to measure non-specific binding. Saturation experiments for the kinetic analysis were carried out using ten concentrations of 16,17-dihydro-GA4 within the range of 25 to 1,500 nM. Competition assays were performed using [1,2,16,17-^3H4]-16,17-dihydro-GA4 at 15 nM and five concentrations of the non-labeled competitor. Recombinant RGA and GAI proteins were prepared using pET32a by a previously described method.
The ligand selectivity of each AtGID1 was examined by observing the competitive inhibition, by the addition of GA to the assay mixtures, of the binding between the recombinant proteins and tritiated 16,17-dihydro-GA4 (Table 2). The ligand selectivity was evaluated using the concentration of GA that inhibits 50% of the tracer (15 nM) binding (IC50 value).

A further assay concerns the target T2, AtGID1b (Arabidopsis thaliana, UniProt Q9LYC1).
T2 construct: made in house; host or cells: E. coli
T2 sequence (Q9LYC1 1-358): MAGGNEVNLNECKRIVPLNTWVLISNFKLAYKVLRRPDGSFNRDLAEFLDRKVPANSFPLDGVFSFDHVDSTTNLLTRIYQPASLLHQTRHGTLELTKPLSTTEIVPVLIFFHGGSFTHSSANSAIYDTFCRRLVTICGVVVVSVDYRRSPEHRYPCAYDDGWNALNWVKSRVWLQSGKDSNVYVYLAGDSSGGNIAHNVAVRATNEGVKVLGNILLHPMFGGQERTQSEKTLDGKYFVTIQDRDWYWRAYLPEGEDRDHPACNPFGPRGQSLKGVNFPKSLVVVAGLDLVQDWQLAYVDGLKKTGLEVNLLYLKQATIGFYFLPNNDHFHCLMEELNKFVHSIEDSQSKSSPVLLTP
Put plainly: Scatchard analysis of GA binding of AtGID1b. Conditions: equilibrium conditions. Here is the method: Panels A) to C) depict the results of Scatchard plot analyses for the GA binding of AtGID1. Results for AtGID1a (A), AtGID1b (B), and AtGID1c (C) are shown. The Kd values for 16,17-dihydro-GA4 was determined by adding various concentrations of GA to the assay mixture. Standard deviation (SD) was determined from these three independent measurements. The insets show time-course characteristics for the GA binding of AtGID1 and replacement (arrow) using an excess amount of non-labeled GA4 (0.125 mM). Panels D) to F) depict the GA binding activities of AtGID1 under different pH conditions. Results for AtGID1a (D), AtGID1b (E), and AtGID1c (F) are shown. The non-specific binding activity (UB) was determined by adding 0.125 mM GA4 to the assay solution, and this was subtracted from the total binding activity (B) to determine the specific binding activity (B-UB).
Specifically, the coding region of the AtGID1 gene was amplified by PCR using specific primers designed based on the full-length cDNA sequence of the AtGID1 gene and having appropriate restriction sites at each end. […]
The kinetics, ligand selectivity, and pH dependence of GA binding for the three AtGID1s identified as described above were examined using the tritiated GA4 derivative 16,17-dihydro-GA4. […] Furthermore, the kinetics of GA binding of each AtGID1 was analyzed under equilibrium conditions of GA at various concentrations.

The subject of assay [1] is GA-deficient Arabidopsis mutant ga1-3 seeds. Put plainly: Germination of GA-deficient ga1-3 seeds. In kind it is in vivo. As for the experimental part: The germination of GA-deficient gal-3 seeds in a medium containing 16,17-dihydro-GA4 was tested, according to the method of Yamaguchi et al. (Plant Cell, 10, 2115-2126, […]). Approximately 70 to 80 seeds were used per each dish. Three independent measurements were carried, and the standard deviation (SD) was determined from these measurements. The seeds were assessed for germination at 23° C. on day 4, after cold treatment at 4° C. for 3 days. GA4 was used as a reference.

Usually pIC50 stands for −log10 of the IC50, conventionally taken in molar units. High values mean a small IC50, low ones a large IC50. The pKd is −log10 of the Kd, conventionally taken in molar units. Higher therefore signals a low Kd. As for `CC1C[C@]23C[C@H]1CCC2[C@]12CC[C@H](O)[C@](C)(C(=O)O1)[C@H]2[C@@H]3C(=O)O` (stereo partly shown) [H2-GA4, 16,17-dihydro-GA4], the “relative value, taking the value for GA4 as 100” value at AtGID1a is recorded as “(8) %”. Moreover, the pIC50 on AtGID1a (tracer 15 nM, mean of at least two measurements) was 5.40. In addition, the pKd at AtGID1b is 6.32. For the same compound, the “physiological effect on germination relative to GA4” value in assay [1] is “about 1/10”.
